Literature values in patent US20210308071A1, “Treatment method to abort and or reduce the severity of upper respiratory viral illness as well as to prevent upper respiratory viral illness in humans” (priority 2020, published 2021).
Read-outs that look alike come from different tables or passages of the source.

Conditions: for orally administered dose excreted as the glucuronic acid conjugate within 24 hours: humans

SMILES: CC1(C)C2CCC1(C)C(O)C2 (stereo not drawn) [Borneol]
- administered dose detected as the glucuronic acid conjugate in human urine (10 hours after ingestion of 2000 mg): 81%
- orally administered dose excreted as the glucuronic acid conjugate within 24 hours (oral 1000 mg): 81%
- orally administered dose excreted as the glucuronic acid conjugate within 24 hours (oral 2000 mg): 94%
